How the values were obtained:
GAC = biological target: T1, GAC (Mus musculus, UniProt D3Z7P3); test: Real-time GAC enzyme activity assay coupled to glutamate dehydrogenase (NADH fluorescence); type: biochemical
T1 construct: (residues 72-603) was cloned into a pET23a vector; His-tag with thrombin cleavage site (N, cleaved yes); made in house
T1 sequence (D3Z7P3 72-603 isoform D3Z7P3-2): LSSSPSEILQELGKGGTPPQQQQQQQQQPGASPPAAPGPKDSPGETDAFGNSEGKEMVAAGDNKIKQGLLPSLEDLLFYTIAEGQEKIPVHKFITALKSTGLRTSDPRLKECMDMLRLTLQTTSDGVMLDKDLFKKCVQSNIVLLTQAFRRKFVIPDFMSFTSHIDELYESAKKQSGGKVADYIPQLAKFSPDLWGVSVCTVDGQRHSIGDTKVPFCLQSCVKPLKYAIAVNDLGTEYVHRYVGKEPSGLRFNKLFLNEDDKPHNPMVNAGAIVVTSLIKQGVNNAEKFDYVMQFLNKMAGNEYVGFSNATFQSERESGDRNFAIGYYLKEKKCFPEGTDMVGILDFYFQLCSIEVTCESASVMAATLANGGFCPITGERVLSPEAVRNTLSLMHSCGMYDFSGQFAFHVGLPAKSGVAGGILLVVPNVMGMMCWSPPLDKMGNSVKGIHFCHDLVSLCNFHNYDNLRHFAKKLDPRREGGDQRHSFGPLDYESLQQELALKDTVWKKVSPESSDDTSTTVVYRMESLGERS
Description: A plasmid encoding the mouse kidney-type glutaminase isoform 2 (GAC, GenBank Accession No. NP_001106854.1, which is hereby incorporated by reference in its entirety) (residues 72-603) was cloned into a pET23a vector containing an N-terminal histidine (His)-tag and thrombin cleavage site. The expressed protein was purified using Co^2+ affinity beads (Clontech), followed by His-tag cleavage with human thrombin (Haemetologic Technologies) overnight at 4° C., and subsequently purified by anion exchange (GE healthcare) and gel filtration chromatography. Purified GAC was stored in a high salt-containing buffer (20 mM Tris-HCl pH 8.5, 500 mM NaCl, 1 mM NaN3) at −80° C., following snap freezing in liquid N2 for long term use. Labeling recombinant GAC with small molecule probes was performed by exchanging 1.5 mg of enzyme into 50 mM HEPES, pH 7.2, and 100 mM NaCl (labeling buffer), using a PD10 desalting column (GE healthcare). The enzyme was then incubated with 50 μM (5-fold excess of enzyme) of either AlexaFluor 488 succinimidyl ester or QSY9 succinimidyl ester (Molecular Probes) for 1 hour at 4° C. After 1 hour, the labeling reaction was quenched with 150 mM Tris-HCl, pH 8.5, and unreacted probe was separated from labeled-enzyme using a PD10 desalting column, eluting labeled-GAC back into the high salt-containing buffer. The stoichiometry of labeling was determined using the probe manufacturer's reported molar absorptivity values and instructions. Briefly, the concentration of GAC was determined by first correcting absorbance at 280 nm (Abs280) for each probe, using the reported correction values (0.11 for AlexaFluor 488 and 0.23 for QSY-9) and their absorbance values at their absorbance maxima (495 nm and 562 nm, respectively). The corrected Abs280 was used along with the experimentally determined molar absorptivity of GAC (ε280=38,850 M−1 cm−1). AlexaFluor 488 and QSY-9 probes were quantified using their respective absorbance maxima and the manufacturer's reported molar absorptivity values (ε495=71,000 M−1 cm−1 and ε562=85,000 M−1 cm−1).
Real-time fluorescence monitoring of 968 binding and GAC activity through production of NADH was performed on a Varian Cary Eclipse Fluorometer, whereas small molecule inhibition and binding titrations were performed in a 96-well format in a Tecan Saphire absorbance and fluorescence plate reader. Samples for monitoring real-time binding of 968 to 488-GAC were prepared by adding 10 μL of varying concentrations of 968 prepared in DMSO to an equilibrated 1 mL sample of 10 nM 488-GAC, while observing 488 fluorescence (490 nm excitation/520 nm emission). Similarly, this method was replicated for monitoring real-time binding of 968 to mutant forms of GAC, namely 488-labeled GAC (GD391K) and 488-GAC (D391K, K316E, R459E). Real-time activity assays monitoring 968 binding and NADH production were prepared in 1 mL samples, where 10 units of glutamate dehydrogenase (Sigma) and 2 mM NAD+ (Sigma) were prepared in 50 mM Tris-Acetate, pH 8.5, 0.1 mM EDTA and equilibrated at 20° C. WT GAC (10 nM) was added and allowed to equilibrate 2 minutes before monitoring the fluorescence emission of 488-GAC (490 nm excitation, 520 nm emission) and NADH (340 nm excitation, 490 nm emission). Appropriate dilutions of 968 or BPTES prepared in DMSO were introduced after 30 seconds and allowed to equilibrate for 2 minutes before a 180 μL solution of K2HPO4 and glutamine was added to make a final concentration of 50 mM K2HPO4 and 20 mM glutamine, to initiate GAC activation. The activity of GAC was measured in a coupled assay, by monitoring the NADH produced by glutamate dehydrogenase, which converts the product of the glutaminase-catalyzed reaction, glutamate, to α-ketoglutarate and ammonia by reducing NAD+ to NADH. […]

WT GAC = biological target: T2, WT GAC (Mus musculus, UniProt D3Z7P3); test: In vitro photo cross linking of SU-22 and purification of the conjugate; type: binding; settings: 100 nM WT GAC, 10 μM SU-22, UV, A350/A280
T2 construct: (residues 72-603) was cloned into a pET23a vector; made in house
T2 sequence (D3Z7P3 72-603 isoform D3Z7P3-2): T1 sequence (D3Z7P3 72-603 isoform D3Z7P3-2)
Description: Conditions of in vitro cross linking of WT GAC, and the K316E/D391K/R459E GAC mutant were adapted for efficient cross linking and purification of the cross linked protein product. WT GAC and the K316E/D391K/R459E GAC mutant, both containing the N-terminal His-tag, were diluted to a concentration of 100 nM in 20 mM Tris-HCl (pH=8.6) 100 mM NaCl, upon which 10 μM of SU-22 was added. Following a preincubation time of 5 minutes, samples were exposed to UV light under a hand held 500 W UV lamp to initiate the photo cross linking. Immediately following, bovine serum albumin (BSA, Sigma) was added to a final concentration of 2 mg/mL to help stabilize the cross linked product and to bind excess un-reacted SU-22. To isolate the cross linked product, 2.5 mg cobalt agarose beads (Clontech) were added and the solution was gravity filtered. […] The purified cross linked protein was then concentrated using spin columns with a 30 kD molecular weight cutoff and quantified using UV-vis spectroscopy, where the protein was quantified using the A280 (ε280=38,850 M−1 cm−1) and the cross-linked SU-22 using the A350 (ε350=18,900 M−1 cm−1). […]

Structure (SMILES)	inhibition of enzyme activity (GAC; GAC pre-incubated with 968 before adding phosphate)	concentration inhibiting the GAC isoform compared with parent compound 968 (GAC; in vitro inhibition, FIG. 9 / FIG. 11)	ratio of cross linked SU-22 to protein (WT GAC)
CN(C)c1ccc(C2Nc3ccc4ccccc4c3C3=C2C(=O)CC(C)(C)C3)cc1Br (stereo not drawn) [Compound 968]	strongly inhibited		
CC1(C)CC(=O)C2=C(C1)c1c(ccc3cc4ccccc4cc13)NC2c1ccc(N=[N+]=[N-])cc1 (stereo not drawn) [SU-22]		lower concentration than the parent compound, 968	0.52

Reference: patent US10526322B2, “Inhibitors of kidney-type glutaminase, GLS-1” (CORNELL UNIVERSITY, priority 2014, dated 2020)
